# Source: patent US20050233467A1, “Visible wavelength fluorescent calcium indicators that are (i) leakage resistant and (ii) operate near membranes” (priority 2004, published 2005)
# Tested on: myocytes of mouse small mesenteric arteries
# Test: Localization of dye in walls of mouse small mesenteric arteries (imaging)
# Assay type: cell-based
# Details: mouse small mesenteric artery wall, activated cells
# From the text: The plane is tangential to the artery, very close to the coverslip. The spindle-shaped cells run horizontally, the artery lumen runs vertically. […] The FLUO-MOMO images are quite bright because the cells have been activated and [Ca^2+] cyt has risen. […] (Photo courtesy of Dr. Blaustein of The University of Maryland Medical School.)
smiles,measurement,value
CCN(CC)c1ccc(/C=C/C=C/C=C/c2cc[n+](CCC[N+](CC)(CC)CC)cc2)cc1.[Br-].[Br-] [FM4-64],localization of dye in the cell,localizes to the plasma membrane
